Here are results for two compounds from article PMC8583042, “New Hybrid Compounds Combining Fragments of Usnic Acid and Thioether Are Inhibitors of Human Enzymes TDP1, TDP2 and PARP1” (International Journal of Molecular Sciences, 2021).

SMILES strings stand for the structures. Where two headings read alike, the source gives them in different places.

In data set [1] the target is T1, TDP1 (Homo sapiens, UniProt Q9NUW8).
T1 construct: made in house; host or cells: E. coli
In words: Real-time fluorescence assay of TDP1 activity. The data set is classed as biochemical. An excerpt: We tested UA and all 14 newly synthesized UA derivatives for their TDP1 inhibitory properties by measuring their IC50 values using a real-time fluorescent assay. […] Compounds 10a,b are sulfoxide analogs of 7g,h.
Human recombinant tyrosyl-DNA phosphodiesterase 1 (TDP1) and human recombinant poly(ADP-ribose)-polymerase1 (PARP1) were expressed in the E. coli system and purified as described.
(§1) The biosensor (5′-[FAM] AAC GTC AGGGTC TTC C [BHQ]-3′) was synthesized in the Laboratory of Nucleic Acid Chemistry at the Institute of Chemical Biology and Fundamental Medicine (Novosibirsk, Russia) and was used for TDP1 enzyme activity real-time fluorescence detection. The reaction mixture (200 μL) contained a TDP1 reaction buffer (50 mM Tris-HCl, pH 8.0, 50 mM NaCl, and 7 mM β-mercaptoethanol), 50 nM oligonucleotide, varied concentrations of the tested compounds, and purified TDP1 in a final concentration 1.5 nM. The reaction mixtures were incubated at a constant temperature of 26 °C in a POLARstar OPTIMA fluorimeter (BMG LABTECH, GmbH, Ortenberg, Germany). Fluorescence intensity was measured (Ex485/Em520 nm) every 1 min for 10 min. The average values of the half maximal inhibitory concentration (IC50) were determined using an eleven-point concentration response curve and calculated using MARS Data Analysis 2.0 (BMG LABTECH). The 50% inhibitory concentration (IC50) was defined as the concentration of the compound that inhibited 50% of the enzyme activity when compared to the untreated controls. At least three independent experiments were carried out to obtain the IC50 values. To determine the kinetic parameters of the TDP1 enzymatic reaction, the apparent maximum rate of enzymatic reaction (Vmax), Michaelis constant (KM), possible inhibition mechanism, and steady-state kinetic experiments were carried out at 5 fixed concentrations of the substrate, with variation in the inhibitor concentrations. The standard reaction mixtures (200 μL) contained reaction buffer components; 50 nM, 100 nM, 200 nM, 500 nM, or 1000 nM substrate; an inhibitor; and 1.5 nM recombinant human TDP1. The initial kinetic curves were obtained in three independent experiments and statistically processed in OriginPro 8.6.0 (OriginLab, Northampton, MA, USA).

A short description of data set [2]: Colorimetric cytotoxicity test, HEK293A Tdp1-/-. The data set is classed as cell-based. As to conditions: human, HEK293A Tdp1-/- cells; TDP1-/- cell line, intrinsic cytotoxicity (Figure 6). An excerpt:
In our previous works, we checked the cytotoxic effect of Tpc and the TDP1 inhibitors—monoterpene 3-carene-derived compounds [48, 49] and UA combined with monoterpenoids, measured separately and jointly with Tpc—using a panel of HEK293FT and HEK293A Tdp1 knockout isogenic clones. […] The data on the HEK293FT mutants were of low reproducibility, which is why we decided to change the basic cell line to HEK293A [49]. In this work, we created new PARP1-/- HEK293A cells using the CRISPR–Cas9 approach (Figure S27). […] We checked the intrinsic cytotoxicity of the leader compound (10a) on the HEK293 wild type and TDP1-/- and PARP1-/- cell lines using a colorimetric test (Figure 6). […] There was no difference between the WT and mutant cells.
Cytotoxicity of the compounds was examined against human cell lines HEK293A (human embryonic kidney)—WT, TDP1 deficient (Tdp1-/-), PARP1 deficient (PARP1-/-), and HeLa (cervical cancer) using an EZ4U colorimetric test (Biomedica, Vienna, Austria). […] After the formation of a 30–50% monolayer, the tested compounds were added to the medium, and the cell culture was monitored for 3 days. […] The compound concentration that caused 50% cell growth inhibition was determined using OriginPro 8.6.0 software (OriginLab, Northampton, MA, USA). […]

Data set [3] deals with T1, TDP1. Kind of data set: Steady-state kinetics of the TDP1 reaction (Vmax, KM, type of inhibition). It counts as biochemical. On the set-up: Vmax: unit not given here.
Description: The reversible enzyme inhibitors were classified as competitive, uncompetitive, non-competitive, or mixed, depending on the binding of the enzyme, to the enzyme–substrate complex (ES) or to the enzyme–substrate–inhibitor triple complex (ESI). The enzyme could bind the inhibitor at the different steps of catalysis (before or after the substrate) and at the substrate-binding site or another site. The effect of the inhibitor on enzymatic activity can be analyzed using graphical representations of the Michaelis–Menten equation. […] TDP1 has a catalytic pocket with a narrow positively charged cleft where it binds DNA and with a relatively large cleft that contains a mixed charge distribution for the TOP1 fragment binding. It is known that TDP1 hydrolyzes the DNA–TOP1 adducts via two coordinated nucleophilic attacks of two His residues (His263 and His493) with the covalent intermediate complex formation. The enzyme reaction catalyzed by TDP1 could be inhibited in two steps: the first one is the inhibition of the TDP1 binding to the DNA substrate (the nucleophilic attack of His263). The second step is releasing TDP1 from the transition complex (nucleophilic attack by a water molecule activated by His493). Inhibition of the second step prevents the release of the DNA 3′-phosphate product from the DNA–TDP1 complex. Spinocerebellar ataxia with axonal neuropathy (SCAN1) is a neurological disease that is caused by a TDP1 His493Arg mutation. This mutation prevents the second step of hydrolysis of the intermediate complex and the enzyme remains covalently bound to DNA [47]. The uncompetitive inhibitors also prevent the second step of the reaction, stabilizing the enzyme–DNA covalent complex, which can lead to the accumulation of the single-strand breaks in the cell.
as §1
Table S25 Dependence of TDP1 reaction values V max and K M on the concentration of inhibitors
[7g], mM V max Standard Error K M Standard Error
[7h], mM V max Standard Error K M Standard Error
[10a], mM V max Standard Error K M Standard Error
[10b], mM V max Standard Error K M Standard Error

T1 sequence (Q9NUW8 whole entry): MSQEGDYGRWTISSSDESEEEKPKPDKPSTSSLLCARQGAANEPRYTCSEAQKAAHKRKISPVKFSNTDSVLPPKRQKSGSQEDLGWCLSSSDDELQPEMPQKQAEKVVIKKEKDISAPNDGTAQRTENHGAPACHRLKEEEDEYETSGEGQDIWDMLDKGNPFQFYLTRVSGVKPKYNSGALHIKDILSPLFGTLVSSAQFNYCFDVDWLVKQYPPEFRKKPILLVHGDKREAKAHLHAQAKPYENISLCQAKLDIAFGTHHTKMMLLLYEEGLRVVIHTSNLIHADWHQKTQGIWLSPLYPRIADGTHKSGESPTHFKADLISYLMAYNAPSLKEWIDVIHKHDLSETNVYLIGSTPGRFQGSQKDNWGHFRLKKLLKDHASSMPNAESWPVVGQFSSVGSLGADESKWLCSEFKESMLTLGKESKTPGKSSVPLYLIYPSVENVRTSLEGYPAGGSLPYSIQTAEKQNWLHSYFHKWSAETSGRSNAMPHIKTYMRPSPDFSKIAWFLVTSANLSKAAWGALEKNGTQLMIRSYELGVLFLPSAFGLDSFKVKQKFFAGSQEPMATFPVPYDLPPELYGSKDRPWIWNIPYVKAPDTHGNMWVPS

As to `CC(=O)C1=C(O)C=C2Oc3c(C(=O)C[S+]([O-])c4nc5ccccc5s4)c(O)c(C)c(O)c3[C@@]2(C)C1=O` (stereo partly drawn) [10a, (2R)-4-acetyl-10-[2-(1,3-benzothiazole-2-sulfinyl)acetyl]-5,11,13-trihydroxy-2,12-dimethyl-8-oxatricyclo[7.4.0.0^2,7]trideca-1(13),4,6,9,11-pentaen-3-one], the IC50 in data set [1] (real-time fluorescent assay, 1.5 nM TDP1, 50 nM oligonucleotide, read-out: IC50 (TDP1)) worked out at 2100 ± 200 nM. Besides, in data set [2], the CC50 at 3 days fell in the range of 15 to 20 µM. The Vmax stood at 27.8 in data set [3] (inhibitor 0.8 mM (so in the source)), 26.5 in data set [3] (inhibitor 1.6 mM (so in the source)), 25.1 in data set [3] (inhibitor 3.2 mM (so in the source)) and 21.3 in data set [3] (inhibitor 6.4 mM (so in the source)). Moreover, the “Type of inhibition of TDP1 enzyme reaction” value in data set [3] (steady-state conditions, fall in both Vmax and KM with increasing inhibitor) is listed as “uncompetitive”.

In the case of `CC(=O)c1c(O)c(C)c(O)c2c1OC1=CC(=O)C(C(C)=O)C(=O)C12C` (stereo not drawn) [UA, usnic acid], the IC50 in data set [1] is greater than 50000 nM. Further, the “TDP1 inhibition (in words)” value in data set [1] (in the concentration range of the derivatives' IC50) is recorded as “does not inhibit TDP1”.

The term IC50 denotes the midpoint of a concentration-inhibition curve. What is called CC50 is the concentration giving 50% cytotoxicity.
